Test results: the NIST ThermoML archive (doi:10.1016/j.jct.2006.08.002)
“And” between values parts separate entries of the source, which are not always exact repeats. Equal values may be shown once.

Experiment: xn = mol fraction of the nth substance listed
Conditions: Fluid (supercritical or subcritical phases), Constant-volume piezometry

CCO [ethanol] + O
Conditions | mass density
524.15 K, 7270 kPa, x1 = 0.8 | 383.33 kg/m3
525.15 K, 7460 kPa, x1 = 0.8 | 383.31 kg/m3
526.15 K, 7550 kPa, x1 = 0.8 | 367.95 kg/m3
528.15 K, 7710 kPa, x1 = 0.8 | 312.86 kg/m3
528.15 K, 7870 kPa, x1 = 0.8 | 367.91 kg/m3
528.15 K, 8040 kPa, x1 = 0.8 | 383.24 kg/m3
528.15 K, 8410 kPa, x1 = 0.8 | 406.33 kg/m3
531.15 K, 8420 kPa, x1 = 0.8 | 367.86 kg/m3
533.15 K, 4750 kPa, x1 = 0.8 | 53.24 kg/m3
533.15 K, 7070 kPa, x1 = 0.5 | 84.52 kg/m3
533.15 K, 7100 kPa, x1 = 0.8 | 115.14 kg/m3
533.15 K, 8140 kPa, x1 = 0.8 | 188.77 kg/m3
533.15 K, 8270 kPa, x1 = 0.8 | 244.11 kg/m3 and 260.96 kg/m3
533.15 K, 8350 kPa, x1 = 0.8 | 284.34 kg/m3
533.15 K, 8420 kPa, x1 = 0.8 | 312.77 kg/m3
533.15 K, 8440 kPa, x1 = 0.8 | 307.44 kg/m3
533.15 K, 8750 kPa, x1 = 0.8 | 367.82 kg/m3
533.15 K, 8990 kPa, x1 = 0.8 | 383.14 kg/m3
533.15 K, 9460 kPa, x1 = 0.8 | 406.22 kg/m3
533.15 K, 10480 kPa, x1 = 0.8 | 440.21 kg/m3
533.15 K, 10860 kPa, x1 = 0.8 | 446.58 kg/m3
533.15 K, 17410 kPa, x1 = 0.8 | 516.16 kg/m3
538.15 K, 9170 kPa, x1 = 0.8 | 312.69 kg/m3
538.15 K, 27310 kPa, x1 = 0.8 | 553.51 kg/m3
543.15 K, 4920 kPa, x1 = 0.8 | 53.21 kg/m3
543.15 K, 7570 kPa, x1 = 0.5 | 84.48 kg/m3
543.15 K, 7610 kPa, x1 = 0.8 | 115.08 kg/m3
543.15 K, 9020 kPa, x1 = 0.8 | 188.68 kg/m3
543.15 K, 9530 kPa, x1 = 0.8 | 260.83 kg/m3
543.15 K, 9680 kPa, x1 = 0.8 | 284.19 kg/m3
543.15 K, 9920 kPa, x1 = 0.8 | 312.61 kg/m3
543.15 K, 10630 kPa, x1 = 0.8 | 367.62 kg/m3
543.15 K, 10940 kPa, x1 = 0.8 | 382.93 kg/m3
543.15 K, 11670 kPa, x1 = 0.8 | 406 kg/m3
548.15 K, 7850 kPa, x1 = 0.8 | 115.06 kg/m3
548.15 K, 9420 kPa, x1 = 0.8 | 188.63 kg/m3
548.15 K, 9680 kPa, x1 = 0.5 | 294.01 kg/m3
548.15 K, 9720 kPa, x1 = 0.5 | 327.56 kg/m3
548.15 K, 9980 kPa, x1 = 0.8 | 243.92 kg/m3
548.15 K, 10390 kPa, x1 = 0.5 | 421.66 kg/m3
548.15 K, 10630 kPa, x1 = 0.8 | 307.19 kg/m3
548.15 K, 10680 kPa, x1 = 0.8 | 312.53 kg/m3
548.15 K, 11790 kPa, x1 = 0.5 | 464.07 kg/m3
548.15 K, 11950 kPa, x1 = 0.8 | 382.83 kg/m3
548.15 K, 14420 kPa, x1 = 0.8 | 439.83 kg/m3
548.15 K, 14800 kPa, x1 = 0.8 | 446.2 kg/m3
548.15 K, 17240 kPa, x1 = 0.5 | 522.28 kg/m3
548.15 K, 26570 kPa, x1 = 0.5 | 568.89 kg/m3
548.15 K, 30490 kPa, x1 = 0.5 | 581.74 kg/m3
553.15 K, 5080 kPa, x1 = 0.8 | 53.19 kg/m3
553.15 K, 6130 kPa, x1 = 0.5 | 55.97 kg/m3
553.15 K, 7190 kPa, x1 = 0.5 | 69.28 kg/m3
553.15 K, 7970 kPa, x1 = 0.5 | 84.44 kg/m3
553.15 K, 9210 kPa, x1 = 0.5 | 117.47 kg/m3
553.15 K, 10090 kPa, x1 = 0.5 | 171.33 kg/m3
553.15 K, 10330 kPa, x1 = 0.5 | 234.67 kg/m3
553.15 K, 10520 kPa, x1 = 0.5 | 327.48 kg/m3
553.15 K, 10600 kPa, x1 = 0.5 | 293.93 kg/m3
553.15 K, 10890 kPa, x1 = 0.5 | 385.77 kg/m3
553.15 K, 11430 kPa, x1 = 0.8 | 312.45 kg/m3
553.15 K, 11790 kPa, x1 = 0.5 | 424.77 kg/m3
553.15 K, 11850 kPa, x1 = 0.5 | 419.86 kg/m3
553.15 K, 12540 kPa, x1 = 0.8 | 367.42 kg/m3
553.15 K, 13460 kPa, x1 = 0.5 | 463.93 kg/m3
553.15 K, 19450 kPa, x1 = 0.5 | 522.11 kg/m3
553.15 K, 25160 kPa, x1 = 0.8 | 515.53 kg/m3
